Laboratory results: ChEMBL document CHEMBL4118056, “Antitubercular Activity of Mycelium-Associated Ganoderma Lanostanoids” (J Nat Prod, 2017)
Converted amounts (≈) assume the structure as drawn.

What was measured:
[1] = tested on: Mycobacterium tuberculosis; experiment: Antitubercular activity against Mycobacterium tuberculosis H37Ra by GFP based microplate assay; format: functional
[2] = tested on: Vero; experiment: Cytotoxicity against African green monkey Vero cells by GFP based microplate assay; format: cell-based; conditions: Chlorocebus sabaeus
[3] = tested on: Mycobacterium tuberculosis; experiment: Antitubercular activity against Mycobacterium tuberculosis H37Ra; format: functional
[4] = tested on: Vero; experiment: Cytotoxicity against African green monkey Vero cells; format: cell-based; conditions: Chlorocebus sabaeus

SMILES | MIC [1] | IC50 [2] | MIC [3] | IC50 [4]
CO[C@@H]1C[C@H]2C(C)(C)C(=O)CC[C@]2(C)C2=C1[C@]1(C)CC[C@H]([C@H](C)CC/C=C(\C)C(=O)O)[C@@]1(C)CC2 | 25 µg/mL (≈ 51.6 µM) | > 103 µM | – | –
CC(=O)O[C@H]1C[C@H]([C@H](C)CC/C=C(\C)C(=O)O)[C@@]2(C)CCC3=C(CC[C@H]4C(C)(C)C(=O)CC[C@]34C)[C@]12C | 50 µg/mL (≈ 97.5 µM) | > 98 µM | – | –
CO[C@@H]1C[C@H]2C(C)(C)[C@@H](OC(C)=O)CC[C@]2(C)C2=C1[C@]1(C)[C@@H](O)C[C@H]([C@H](C)[C@H](C/C=C(\C)C(=O)O)OC(C)=O)[C@@]1(C)CC2 | – | – | 50 µg/mL (≈ 82.9 µM) | 32 µM
CC(=O)O[C@@H](C/C=C(\C)C(=O)O)[C@@H](C)[C@H]1CC[C@@]2(C)C3=C(CC[C@]12C)[C@@]1(C)CC[C@H](OC(C)=O)C(C)(C)[C@@H]1C[C@H]3O | 25 µg/mL (≈ 43.6 µM) | 84 µM | – | –
CC(=O)O[C@H]1C[C@H]([C@H](C)CC/C=C(\C)C(=O)O)[C@@]2(C)CC=C3C(=CC[C@H]4C(C)(C)[C@H](O)CC[C@]34C)[C@]12C | 25 µg/mL (≈ 48.8 µM) | 94 µM | – | –
CC(=O)O[C@H]1CC[C@]2(C)C3=C(C(=O)C[C@H]2C1(C)C)[C@]1(C)[C@@H](O)C[C@H]([C@H](C)CC/C=C(\C)C(=O)O)[C@@]1(C)CC3 | 50 µg/mL (≈ 94.6 µM) | 92 µM | – | –
CC(=O)O[C@H]1CC[C@]2(C)C3=CC[C@]4(C)[C@@H]([C@H](C)CC/C=C(\C)C(=O)O)C[C@H](OC(C)=O)[C@@]4(C)C3=CC[C@H]2C1(C)C | 0.391 µg/mL (≈ 0.705 µM) | 32 µM | – | –
CC(=O)O[C@@H](C/C=C(\C)C(=O)O)[C@@H](C)[C@H]1CC[C@@]2(C)C3=CC[C@H]4C(C)(C)[C@H](OC(C)=O)CC[C@]4(C)C3=CC[C@]12C | 50 µg/mL (≈ 90.1 µM) | 32 µM | – | –
C/C(=C\C[C@H](O)[C@@H](C)[C@H]1CC[C@@]2(C)C3=C(CC[C@]12C)[C@@]1(C)CCC(=O)C(C)(C)[C@@H]1CC3)C(=O)O | 50 µg/mL (≈ 106 µM) | 105 µM | – | –
CC(=O)O[C@@H](C/C=C(\C)C(=O)O)[C@@H](C)[C@H]1C[C@H](OC(C)=O)[C@@]2(C)C3=C(CC[C@]12C)[C@@]1(C)CC[C@@H](OC(C)=O)C(C)(C)[C@@H]1C[C@H]3O | 12.5 µg/mL (≈ 19.8 µM) | 28 µM | – | –
CC(=O)O[C@@H](C/C=C(\C)C(=O)O)[C@@H](C)[C@H]1CC[C@@]2(C)C3=C(CC[C@]12C)[C@@]1(C)CC[C@@H](O)C(C)(C)[C@@H]1CC3=O | 50 µg/mL (≈ 94.6 µM) | 95 µM | – | –
CC(=O)O[C@@H](C/C=C(\C)C(=O)O)[C@@H](C)[C@H]1CC[C@@]2(C)C3=C(CC[C@]12C)[C@@]1(C)CC[C@H](O)C(C)(C)[C@@H]1CC3=O | 1.56 µg/mL (≈ 2.95 µM) | 87 µM | – | –
CO[C@@H]1C[C@H]2C(C)(C)[C@@H](OC(C)=O)CC[C@]2(C)C2=C1[C@]1(C)[C@@H](OC(C)=O)C[C@H]([C@H](C)CC/C=C(\C)C(=O)O)[C@@]1(C)CC2 | 3.13 µg/mL (≈ 5.33 µM) | 30 µM | – | –
CC(=O)O[C@H]1CC[C@]2(C)C3=C([C@H](OC(C)=O)C[C@H]2C1(C)C)[C@]1(C)[C@@H](O)C[C@H]([C@H](C)CC/C=C(\C)C(=O)O)[C@@]1(C)CC3 | 25 µg/mL (≈ 43.6 µM) | 31 µM | – | –
CC(=O)O[C@@H](C/C=C(\C)C(=O)O)[C@@H](C)[C@H]1C[C@H](OC(C)=O)[C@@]2(C)C3=CC[C@H]4C(C)(C)[C@@H](O)CC[C@]4(C)C3=CC[C@]12C | > 50 µg/mL | 33 µM | – | –
CC(=O)O[C@H]1C[C@H]([C@H](C)CC/C=C(\C)C(=O)O)[C@@]2(C)CCC3=C(CC[C@H]4C(C)(C)[C@@H](O)CC[C@]34C)[C@]12C | 12.5 µg/mL (≈ 24.3 µM) | > 96 µM | – | –
CO[C@@H]1C[C@H]2C(C)(C)[C@H](OC(C)=O)CC[C@]2(C)C2=C1[C@]1(C)[C@@H](OC(C)=O)C[C@H]([C@H](C)[C@H](C/C=C(\C)C(=O)O)OC(C)=O)[C@@]1(C)CC2 | 12.5 µg/mL (≈ 19.4 µM) | 26 µM | – | –

SMILES | MIC [1] | IC50 [2] | MIC [3] | IC50 [4]
CC(=O)O[C@H]1CC[C@]2(C)C3=CC[C@]4(C)[C@@H]([C@H](C)CC/C=C(\C)C(=O)O)C[C@H](O)[C@@]4(C)C3=CC[C@H]2C1(C)C | 6.25 µg/mL (≈ 12.2 µM) | 13 µM | – | –
CO[C@@H]1C[C@H]2C(C)(C)[C@H](OC(C)=O)CC[C@]2(C)C2=C1[C@]1(C)CC[C@H]([C@H](C)[C@H](C/C=C(\C)C(=O)O)OC(C)=O)[C@@]1(C)CC2 | 50 µg/mL (≈ 85.2 µM) | 38 µM | – | –
CC(=O)O[C@@H](C/C=C(\C)C(=O)O)[C@@H](C)[C@H]1C[C@H](OC(C)=O)[C@@]2(C)C3=CC[C@H]4C(C)(C)C(=O)CC[C@]4(C)C3=CC[C@]12C | 25 µg/mL (≈ 44 µM) | 87 µM | – | –
CC(=O)O[C@H]1C[C@H]([C@H](C)CC/C=C(\C)C(=O)O)[C@@]2(C)CC=C3C(=CC[C@H]4C(C)(C)C(=O)CC[C@]34C)[C@]12C | 12.5 µg/mL (≈ 24.5 µM) | > 98 µM | – | –
CC(=O)O[C@@H](C/C=C(\C)C(=O)O)[C@@H](C)[C@H]1CC[C@@]2(C)C3=C(CC[C@]12C)[C@@]1(C)CC[C@H](OC(C)=O)C(C)(C)[C@@H]1CC3=O | 6.25 µg/mL (≈ 11 µM) | 32 µM | – | –
CC(=O)O[C@@H](C/C=C(\C)C(=O)O)[C@@H](C)[C@H]1C[C@H](O)[C@@]2(C)C3=C(CC[C@]12C)[C@@]1(C)CC[C@H](OC(C)=O)C(C)(C)[C@@H]1C[C@H]3OC(C)=O | 12.5 µg/mL (≈ 19.8 µM) | 77 µM | – | –
CC(=O)O[C@@H]1C[C@H]2C(C)(C)C(=O)CC[C@]2(C)C2=C1[C@]1(C)[C@@H](O)C[C@H]([C@H](C)CC/C=C(\C)C(=O)O)[C@@]1(C)CC2 | 25 µg/mL (≈ 47.3 µM) | > 95 µM | – | –
CC(=O)O[C@@H](C/C=C(\C)C(=O)O)[C@@H](C)[C@H]1C[C@H](O)[C@@]2(C)C3=C(CC[C@]12C)[C@@]1(C)CC[C@H](OC(C)=O)C(C)(C)[C@@H]1C[C@H]3O | 12.5 µg/mL (≈ 21.2 µM) | 83 µM | – | –
CC(=O)O[C@@H](C/C=C(\C)C(=O)O)[C@@H](C)[C@H]1C[C@H](O)[C@@]2(C)C3=C(CC[C@]12C)[C@@]1(C)CCC(=O)C(C)(C)[C@@H]1C[C@H]3O | > 50 µg/mL | > 92 µM | – | –
CO[C@@H]1C[C@H]2C(C)(C)C(=O)CC[C@]2(C)C2=C1[C@]1(C)[C@@H](OC(C)=O)C[C@H]([C@H](C)[C@H](C/C=C(\C)C(=O)O)OC(C)=O)[C@@]1(C)CC2 | > 50 µg/mL | > 83 µM | – | –
CO[C@@H]1C[C@H]2C(C)(C)[C@H](OC(C)=O)CC[C@]2(C)C2=C1[C@]1(C)[C@@H](O)C[C@H]([C@H](C)CC/C=C(\C)C(=O)O)[C@@]1(C)CC2 | 50 µg/mL (≈ 91.8 µM) | 87 µM | – | –
CC(=O)O[C@H]1C[C@H]([C@H](C)CC/C=C(\C)C(=O)O)[C@@]2(C)CCC3=C([C@H](O)C[C@H]4C(C)(C)C(=O)CC[C@]34C)[C@]12C | 50 µg/mL (≈ 94.6 µM) | > 95 µM | – | –
CC(=O)O[C@@H](C/C=C(\C)C(=O)O)[C@@H](C)[C@H]1C[C@H](O)[C@@]2(C)C3=CC[C@H]4C(C)(C)[C@@H](O)CC[C@]4(C)C3=CC[C@]12C | 6.25 µg/mL (≈ 11.8 µM) | 95 µM | – | –
C/C(=C\CC[C@@H](C)[C@H]1CC[C@@]2(C)C3=C(CC[C@]12C)[C@@]1(C)CCC(=O)C(C)(C)[C@@H]1C[C@H]3O)C(=O)O | 3.13 µg/mL (≈ 6.65 µM) | 103 µM | – | –
CC(=O)O[C@H]1CC[C@]2(C)C3=C([C@H](O)C[C@H]2C1(C)C)[C@]1(C)[C@@H](O)C[C@H]([C@H](C)CC/C=C(\C)C(=O)O)[C@@]1(C)CC3 | 50 µg/mL (≈ 94.2 µM) | 39 µM | – | –
CO[C@@H]1C[C@H]2C(C)(C)[C@H](OC(C)=O)CC[C@]2(C)C2=C1[C@]1(C)[C@@H](OC(C)=O)C[C@H]([C@H](C)CC/C=C(\C)C(=O)O)[C@@]1(C)CC2 | 50 µg/mL (≈ 85.2 µM) | > 85 µM | – | –
CC(=O)O[C@H]1CC[C@]2(C)C3=CC[C@]4(C)[C@@H]([C@H](C)CC/C=C(\C)C(=O)O)CC[C@@]4(C)C3=CC[C@H]2C1(C)C | > 50 µg/mL | > 101 µM | – | –
